From patent publication US20140038181A1, “CHEMICALLY SUBSTITUTED THERMOSENSITIVE PROBES AND COFACTORS FOR HOT START LIGATION” (TRILINK BIOTECHNOLOGIES, priority 2011, published 2014)
In the oligonucleotide strings, read from the 5' end, every base follows the letter of its sugar. An asterisk marks phosphorothioate; unmarked linkages are phosphodiester. Other units and linkages are bracketed, terminal groups are in braces. A string of capitals states the bases alone. [OXT] = OXT-substituted phosphotriester internucleotide linkage; d = 2'-deoxy (DNA)

What was measured:
[1] = system: complementary DNA target sequence; assay: UV-melting temperature of complexes of acceptor probes with complementary DNA target sequence; assay type: physicochemical; details: 2 μM oligonucleotides; for Tm: NaCl 137 mM, KCl 2.7 mM, phosphate buffer pH 7.4, 260 nm; for ΔTm (PDE - PTE): versus unsubstituted acceptor probe, pH 7.4
Tth DNA ligase = Tth DNA ligase (Thermus thermophilus, UniProt P26996); assay: Ligase reaction with OXT-SAP and unsubstituted NAD+ cofactor on matched and mismatched DNA template, PAGE analysis; assay type: biochemical
Experimental: The ability of Tth DNA ligase to join an OXT-substituted acceptor and donor probes was assessed on a matched and mismatched DNA template in the presence of NAD+ cofactor (see Table 3 for the sequences employed). Each 20 μL reaction was performed in ligase buffer containing 50 mM Tris-HCl (pH 7.5), 10 mM MgCl2, 10 mM dithiothreitol, 25 μg/ml bovine serum albumin and 1 mM NAD+. The OXT-SAP, unsubstituted donor probe and DNA template were at equimolar 0.1 μM concentration. To prevent premature uncontrollable cleavage of the OXT groups from OXT-SAP, the preparation of the ligation mixture was performed in three steps.
First, a binary template-donor complex was prepared by mixing the DNA template and donor strands in ligation buffer, heating the mixture at 95° C. for 2 min, slowly cooling to 4° C. over 15 min, and keeping mixture at 4° C. for 1 hour.
Second, the OXT-SAP was added to the mixture and allowed to stay at 4° C. for 12 hours.
Third, a solutions of NAD+ in ligation buffer was added and ligation was initiated by adding 2 units of Tth DNA ligase to reaction mixture. Ligation proceeded at room temperature for 1 hr and analyzed by PAGE on TBE-Urea denaturing 15% gel (FIG. 12).

[2] = Thermal conversion of 2′,3′-substituted ATP to unsubstituted ATP in ligase buffer at 95° C. (HPLC); assay type: physicochemical; details: 1 mM 2′,3′-substituted ATP
Experimental: The reactions were monitored by analysis of the aliquot of incubated mixture by reverse-phase and anion-exchange HPLC.

T4 DNA ligase = molecular target: T1, T4 DNA ligase (Enterobacteria phage T4, UniProt P00970); assay type: biochemical, bacteriophage T4
T1 construct: purchased New England Biolabs
T1 sequence (P00970 whole entry, looked up): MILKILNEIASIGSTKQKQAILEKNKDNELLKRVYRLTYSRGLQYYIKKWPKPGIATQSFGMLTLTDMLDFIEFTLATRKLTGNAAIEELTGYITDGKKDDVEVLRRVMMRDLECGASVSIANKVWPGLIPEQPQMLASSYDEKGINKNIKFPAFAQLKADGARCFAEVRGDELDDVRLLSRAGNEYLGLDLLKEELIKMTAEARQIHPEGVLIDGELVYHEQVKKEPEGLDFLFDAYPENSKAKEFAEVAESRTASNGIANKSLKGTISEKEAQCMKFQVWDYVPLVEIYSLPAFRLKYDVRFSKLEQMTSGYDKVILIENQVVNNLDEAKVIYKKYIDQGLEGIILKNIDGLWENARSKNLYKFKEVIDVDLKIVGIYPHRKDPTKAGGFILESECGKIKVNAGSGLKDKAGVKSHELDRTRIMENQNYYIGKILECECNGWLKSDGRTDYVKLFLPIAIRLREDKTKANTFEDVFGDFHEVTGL

Tth DNA ligase, sequence (P26996 whole entry): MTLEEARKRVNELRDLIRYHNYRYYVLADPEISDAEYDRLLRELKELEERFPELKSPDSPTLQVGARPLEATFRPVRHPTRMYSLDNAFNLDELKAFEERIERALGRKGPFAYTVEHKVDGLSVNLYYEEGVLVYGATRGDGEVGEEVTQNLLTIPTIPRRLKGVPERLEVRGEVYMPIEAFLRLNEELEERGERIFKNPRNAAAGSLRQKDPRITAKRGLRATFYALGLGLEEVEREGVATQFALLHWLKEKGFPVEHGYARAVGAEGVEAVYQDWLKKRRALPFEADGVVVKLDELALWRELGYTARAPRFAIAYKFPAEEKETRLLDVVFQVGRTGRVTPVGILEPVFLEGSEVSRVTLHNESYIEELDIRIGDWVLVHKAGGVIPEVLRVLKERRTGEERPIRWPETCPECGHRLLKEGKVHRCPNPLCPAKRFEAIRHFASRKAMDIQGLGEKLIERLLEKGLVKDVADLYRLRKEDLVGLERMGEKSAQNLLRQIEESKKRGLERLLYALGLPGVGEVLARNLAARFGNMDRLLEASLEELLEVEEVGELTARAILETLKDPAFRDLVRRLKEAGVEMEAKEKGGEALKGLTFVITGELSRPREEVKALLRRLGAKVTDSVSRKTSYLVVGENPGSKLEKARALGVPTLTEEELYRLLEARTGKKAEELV

Molecule: Double OXT23: TACTATGGTCCACACAACTATT(OXT)G(OXT)C T (DNA dTdAdCdTdAdTdGdGdTdCdCdAdCdAdCdAdAdCdTdAdTdT[OXT]dG[OXT]dCdT)
- Tm [1]: 65.4 °C
- ΔTm (PDE - PTE) [1]: −3.5 °C

Molecule: unsubstituted acceptor probe: CCCTGTTCCAGCGTCGGTGTTGCGTT (Table 3) (unmodified DNA)
- formation of ligation product (Tth DNA ligase; matched template, additionally incubated 1 h at 75° C.): ample formation of ligation product
- formation of ligation product (Tth DNA ligase; matched template, room temperature, 1 hr): efficient formation of ligation product
- formation of ligation product (Tth DNA ligase; mismatched DNA template, 120 hrs of incubation): a small amount of ligation product was formed
- formation of ligation product (Tth DNA ligase; mismatched DNA template, 120 hrs, additionally incubated 1 h at 75° C.): substantial accumulation of ligation product

Molecule: Double OXT12: TACTATGGTCCACACAACTATTG(OXT)C (OXT)T (DNA dTdAdCdTdAdTdGdGdTdCdCdAdCdAdCdAdAdCdTdAdTdTdG[OXT]dC[OXT]dT)
- Tm [1]: 66.2 °C
- ΔTm (PDE - PTE) [1]: −2.6 °C

Molecule: Single OXT1: TACTATGGTCCACACAACTATTGC (OXT)T (DNA dTdAdCdTdAdTdGdGdTdCdCdAdCdAdCdAdAdCdTdAdTdTdGdC[OXT]dT)
- Tm [1]: 67.5 °C
- ΔTm (PDE - PTE) [1]: −1.4 °C

Molecule: Nc1ncnc2c1ncn2[C@@H]1O[C@H](COP(=O)(O)OP(=O)(O)OP(=O)(O)O)[C@@H](OC2CCCO2)[C@H]1OC1CCCO1 (stereo partly shown) [—O(THF), 2′,3′-O-bis-tetrahydrofuranyl-adenosine-5′triphosphates]
- Concentration of unsubstituted ATP ([2]; ligase buffer pH 7.5, 5 min): 2.8 µM
- Concentration of unsubstituted ATP ([2]; ligase buffer pH 7.5, 10 min): 4.6 µM
- Concentration of unsubstituted ATP ([2]; ligase buffer pH 7.5, 20 min): 17.3 µM
- Concentration of unsubstituted ATP ([2]; ligase buffer pH 7.5, 45 min): 72.7 µM
- Concentration of unsubstituted ATP ([2]; ligase buffer pH 7.5, 80 min): 182.2 µM

Molecule: Single OXT2: TACTATGGTCCACACAACTATTG(OXT)C T (DNA dTdAdCdTdAdTdGdGdTdCdCdAdCdAdCdAdAdCdTdAdTdTdG[OXT]dCdT)
- Tm [1]: 66.6 °C
- ΔTm (PDE - PTE) [1]: −2.3 °C

Molecule: Nc1ncnc2c1ncn2[C@@H]1O[C@H](COP(=O)(O)OP(=O)(O)OP(=O)(O)O)[C@@H](O)[C@H]1O [unsubstituted ATP, ATP]
- formation of ligation product (T4 DNA ligase): ample formation of 80(+)-mer ligation product

Molecule: Unsubstituted: TACTATGGTCCACACAACTATTGCT (Table 7 acceptor probe) (DNA TACTATGGTCCACACAACTATTGCT; acceptor probe, label not given here) [reference compound]
- Tm [1]: 68.9 °C
